The results in this text go back to US20060079453A1, “Hla binding peptides and their uses” (priority 2002, published 2006).

Read-outs that look alike come from different tables or passages of the source. No end group written: not given here. Some results are limits rather than exact numbers.

Some targets named below: HLA-B*1801 (Homo sapiens, UniProt P01889, A329T/A93T/A95T/C349S/D201E/D54G/D98Y/E176V/E187T/E204Q/E69T/K202T/Q94N/R155S/R180L/S121R/V306I/Y140S/Y195H/Y33H/Y91S); HLA-B*4001 (Homo sapiens, UniProt P01889, A65T/A93T/A95T/D138N/D98Y/E176V/E69K/N87E/Q56L/Q94N/R180L/S121R/S35A/S48T/T167S/V36M/W171L/Y33H/Y91S); HLA-B*4002 (Homo sapiens, UniProt P01889, A65T/A93T/A95T/D138N/D201E/D98Y/E176V/E204Q/E69K/K202T/N87E/Q56L/Q94N/R180L/S48T/Y33H/Y91S); HLA-B*4402 (Homo sapiens, UniProt P01889, A223V/A65T/A93T/A95T/D201E/D98Y/E176V/E187L/E204Q/E69K/G107R/H137Y/K202T/L105A/L119I/N104T/N87E/Q56L/Q94N/R106L/R155S/R180D/S101N/S121R/S35A/S48T/T118I/V36M/W191S/Y140D/Y91S); HLA-B*4403 (Homo sapiens, UniProt P01889, A223V/A65T/A93T/A95T/D201E/D98Y/E176V/E187L/E204Q/E69K/G107R/H137Y/K202T/L105A/L119I/N104T/N87E/Q56L/Q94N/R106L/R155S/R180L/S101N/S121R/S35A/S48T/T118I/V36M/W191S/Y140D/Y91S); HLA-B*4501 (Homo sapiens, UniProt P01889, A329T/A65T/A93T/A95T/C349S/D138N/D201E/D98Y/E176V/E187L/E204Q/E69K/H137Y/K202T/L119W/N87E/Q56L/Q94N/R155S/R180D/S121R/S35A/S48T/V127L/V306I/V36M/W191S/Y140L/Y33H/Y91S); HLA-DR DRB1*0301 (DR3) (Homo sapiens, UniProt P01903+P01911, A100K/A102G/A103R/A169T/F55Y/I96L/K41T/L162R/M171V/P40S/Q125H/Q178H/Q39Y/R42S/S66N/T106N/T262R/W38E/Y61H); HLA-DR DRB1*0802 (DR8) (Homo sapiens, UniProt P01903+P01911, A100R/A103L/A169T/F76Y/H45Y/I96F/K41T/L162R/M171V/P40S/Q125H/Q178H/Q39Y/Q99D/R218S/R42G/S66Y/V115G/W38E); HLA-DR DRB3*0101 (DR52) (Homo sapiens, UniProt P01903+P79483).

Assay in all cases: biochemical
What all share (assay type): binding

In a further assay the target is HLA-DR DRB1*0101 (DR1) (Homo sapiens, UniProt P01903+P01911, A100R/D57E/F55L/F60I/F76Y/I96L/L162R/M171V/P40L/Q125E/R42F/V115G/Y59C). The note with it: DRB1 *0101.
For a further assay, the target named is HLA-DR DRB1*0401 (DR4) (Homo sapiens, UniProt P01903+P01911, A100K/A169T/F76Y/I96L/K127E/L162R/M171V/N62H/P40V/Q125Y/R42H/S133A/S149N/S66Y/V115G/V209L/W38E). The note with it: DRB1 *0401.
Another assay concerns the target HLA-DR DRB1*0405 (DR4) (Homo sapiens, UniProt P01903+P01911, A100R/A169T/D86S/F76Y/I96L/K127E/L162R/M171V/N62H/P40V/Q125Y/R42H/S133A/S149N/S66Y/V115G/V209L/W38E). The note with it: DRB1 *0405.
A further assay deals with HLA-DR DRB1*0701 (DR7) (Homo sapiens, UniProt P01903+P01911, A100R/A102G/A103Q/D57E/D86V/E43K/F76Y/K127E/L162R/M171V/P40G/Q125H/Q99D/R33Q/R42Y/R54Q/S133A/S66F/T210M/V115G/Y107V/Y59L/Y89S). The note with it: DRB1 *0701.
In another assay the target is HLA-DR DRB1*0901 (DR9) (Homo sapiens, UniProt P01903+P01911, A100R/A103E/D57H/D86V/F55Y/F60I/F76Y/I96F/K127E/L162R/M171V/P40D/Q125H/Q99R/R33Q/R42F/S133A/S66N/T210M/V115G/W38K/Y107V/Y59G/Y89S). The note with it: DRB1 *0901.
The next assay concerns the target HLA-DR DRB1*1101 (DR11) (Homo sapiens, UniProt P01903+P01911, A100R/A169T/A87E/I96F/K41T/L162R/M171V/P40S/Q125H/Q178H/Q39Y/Q99D/R42S/S66Y/T262R/V115G/W38E). The note with it: DRB1 *1101.
For the next assay, the target named is HLA-DR DRB1*1302 (DR13) (Homo sapiens, UniProt P01903+P01911, A100E/A169T/K41T/L162R/M171V/P40S/Q125H/Q178H/Q39Y/Q99D/R42S/S66N/T262R/V115G/W38E/Y61H). The note with it: DRBI *1302.
Sequence of HLA-DR DRB1*1302 (DR13) (P01903 26-254 limits assumed, other chains not shown): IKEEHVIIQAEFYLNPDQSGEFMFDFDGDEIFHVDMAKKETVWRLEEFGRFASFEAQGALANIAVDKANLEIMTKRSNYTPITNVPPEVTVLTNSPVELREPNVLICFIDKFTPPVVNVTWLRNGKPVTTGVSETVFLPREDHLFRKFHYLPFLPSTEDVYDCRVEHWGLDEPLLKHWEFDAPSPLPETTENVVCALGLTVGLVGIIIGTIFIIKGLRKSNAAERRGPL
A further assay deals with HLA-DR DRB1*1501 (DR15) (Homo sapiens, UniProt P01903+P01911). The note with it: DRBI *1501.
The target in another assay is HLA-DR DRB5*0101 (DR51) (Homo sapiens, UniProt P01903+Q30154). The note with it: DRB5 *0101.

Sequence of HLA-DR DRB1*1101 (DR11) (P01903 26-254 limits assumed, other chains not shown): as above
Sequence of HLA-DR DRB1*0301 (DR3) (P01903 26-254 limits assumed, other chains not shown): as above

Regarding AENLWVTVL, the IC50 against HLA-B*1801 was determined as 6200 nM; on HLA-B*4001, 14 nM; against HLA-B*4002, 13 nM; at HLA-B*4402, 68 nM; against HLA-B*4403, 208 nM.

Consider AENLWVTVT, for which the IC50 was determined as 947 nM on HLA-B*4001, 7.8 nM at HLA-B*4002, 2700 nM against HLA-B*4402 and 10 nM at HLA-B*4501.

On to AEIPTRVNY, for which the IC50 at HLA-B*1801 (B*1801) was found to be 1690 nM; against HLA-B*4001 (B*4001), 7830 nM; against HLA-B*4002 (B*4002) it was 5440 nM; against HLA-B*4403 (B*4403), 23 nM.

Take QEILDLWVY: the IC50 worked out at 52 nM against HLA-B*1801 (B*1801); 740 nM against HLA-B*4001 (B*4001); 4520 nM on HLA-B*4002 (B*4002); 264 nM against HLA-B*4402 (B*4402); 6260 nM against HLA-B*4501 (B*4501).

AEPLWVTVY: the IC50 is 310 nM on HLA-B*1801, 1730 nM against HLA-B*4001, 2480 nM on HLA-B*4002 and 96 nM against HLA-B*4403.

With AENLWVFVY, the IC50 at HLA-B*4001 was determined as 857 nM; against HLA-B*4402 it was 348 nM; at HLA-B*4403, 310 nM.

Take AENLWVTNY: the IC50 came out at 730 nM on HLA-B*1801, 865 nM against HLA-B*4001, 948 nM at HLA-B*4002 and 74 nM at HLA-B*4403.

Regarding AENLPVTVY, the IC50 against HLA-B*1801 is 20 nM; on HLA-B*4001, 205 nM; on HLA-B*4402, 356 nM; at HLA-B*4501 it was 246 nM.

As to AEMGKFKYSF, the IC50 on HLA-B*1801 (B*1801) stood at 155 nM; against HLA-B*4002 (B*4002), 3.8 nM; against HLA-B*4402 (B*4402), 18 nM; against HLA-B*4403 (B*4403), 31 nM.

On to DEIGVIDLY, for which the IC50 at HLA-B*4001 (B*4001) is more than 114000 nM; against HLA-B*4002 (B*4002) it was more than 77300 nM; on HLA-B*4402 (B*4402) it was 707 nM; against HLA-B*4501 (B*4501), more than 49000 nM.

With LWQLNGRLEYTLKDR, the IC50 at HLA-B*4403 (B*4403) was determined as 0.11 nM; on HLA-DR DRB1*0101 (DR1) it was 698 nM; at HLA-DR DRB1*0301 (DR3), 511 nM; against HLA-DR DRB1*0401 (DR4) it was 757 nM; on HLA-DR DRB1*0405 (DR4) it was 94 nM; against HLA-DR DRB1*0701 (DR7), 20.2 µM. Also, the IC50 against HLA-DR DRB1*0802 (DR8) came out at 43.3 µM; against HLA-DR DRB1*0901 (DR9), 16.6 µM; at HLA-DR DRB1*1101 (DR11), 6.52 µM; against HLA-DR DRB1*1302 (DR13) it was 2450 nM; at HLA-DR DRB1*1501 (DR15), 853 nM; at HLA-DR DRB3*0101 (DR52) it was 4.4 µM. This molecule also yielded an IC50 against HLA-DR DRB5*0101 (DR51) of 6 µM.

Regarding AEVLWVTVY, the IC50 on HLA-B*4001 is 1550 nM; on HLA-B*4002 it was 436 nM; against HLA-B*4402 it was 1520 nM; against HLA-B*4403, 390 nM.

As to AENDWVTVY, the IC50 on HLA-B*1801 came to 324 nM; against HLA-B*4001, 954 nM; on HLA-B*4402 it was 96 nM; at HLA-B*4403 it was 165 nM.

AENLWDTVY: the IC50 was 775 nM at HLA-B*1801, 1140 nM against HLA-B*4001, 2090 nM at HLA-B*4002 and 68 nM against HLA-B*4403.

Regarding KENLWVTVY, the IC50 against HLA-B*1801 came out at 184 nM; against HLA-B*4001, 2740 nM; on HLA-B*4002 it was 373 nM; against HLA-B*4402 it was 308 nM; against HLA-B*4501, 6220 nM.

Take ADLMGYIPL: the IC50 was more than 7620 nM at HLA-B*1801 (B*1801); 959 nM against HLA-B*4001 (B*4001); 4.7 nM against HLA-B*4002 (B*4002); more than 21400 nM at HLA-B*4402 (B*4402); more than 49000 nM at HLA-B*4501 (B*4501).

AENLWVTLY: the IC50 against HLA-B*1801 turned out to be 392 nM; against HLA-B*4002, 731 nM; on HLA-B*4402, 199 nM; against HLA-B*4501, 349 nM.

For the molecule AENLWTTVY, the results for the half-maximal inhibitory concentration (IC50) on HLA-B*4001, against HLA-B*4402 and against HLA-B*4403 were 246 nM, 51 nM and 50 nM, respectively.

Consider GEISPYPSL, for which the IC50 on HLA-B*1801 came out at 19400 nM; against HLA-B*4001, 24 nM; against HLA-B*4002 it was 1.8 nM; against HLA-B*4403, 293 nM.

Regarding AENPWVTVY, the IC50 is 27 nM against HLA-B*1801, 224 nM on HLA-B*4002, 18 nM at HLA-B*4402 and 53 nM against HLA-B*4403.

As for AENLDVTVY, the IC50 against HLA-B*4001 is 220 nM; on HLA-B*4002, 12100 nM; on HLA-B*4402, 673 nM; against HLA-B*4403, 340 nM.

On to YEDLRVLSF, for which the IC50 against HLA-B*1801 was 20 nM; at HLA-B*4001, 67 nM; against HLA-B*4002 it was 71 nM; against HLA-B*4402 it was 24 nM; against HLA-B*4501, 18700 nM.

In the case of AENLWVTVV, the IC50 against HLA-B*1801 was 10700 nM; at HLA-B*4001, 84 nM; against HLA-B*4002, 19 nM; against HLA-B*4402, 5760 nM; on HLA-B*4501, 35 nM.

Turning to AENLWKTVY, the 50% inhibitory concentration (IC50) against HLA-B*1801 was determined as 913 nM; on HLA-B*4001 it was 850 nM; against HLA-B*4002, 406 nM; at HLA-B*4403, 383 nM.

For the molecule `CC[C@H](C)[C@H](NC(=O)[C@@H](NC(=O)[C@H](CS)NC(=O)[C@@H](NC(=O)[C@@H]1CCCN1C(=O)[C@@H]1CCCN1C(=O)[C@H](CCC(N)=O)NC(=O)[C@@H]1CCCN1C(=O)[C@H](CC(C)C)NC(=O)[C@H](CCCNC(=N)N)NC(=O)[C@H](CCC(=O)O)NC(=O)CN)[C@@H](C)CC)[C@@H](C)O)C(=O)O`, the IC50 against HLA-B*4002 (B*4002) came out at 3.9 nM; at HLA-B*4403 (B*4403), 2.5 nM.

On to AEFLWVTVY, for which the IC50 on HLA-B*1801 was determined as 131 nM; on HLA-B*4001, 183 nM; on HLA-B*4002, 240 nM; at HLA-B*4402, 1010 nM; against HLA-B*4501, 472 nM.

On to AENLWVTDY, for which the IC50 against HLA-B*1801 came out at 1000 nM; on HLA-B*4001 it was 930 nM; on HLA-B*4402 it was 191 nM; against HLA-B*4501 it was 328 nM.
